Data reported in patent US7723023B2, “Use of intrinsic reporters of cell signaling for high content drug profiling and toxicity screening” (Mount Sinai School of Medicine, priority 2001, dated 2010).

Tested on: GnRHR-expressing LβT2 gonadotrope cell line
Assay: SYBR green real-time PCR of transcripts regulated by GnRH in LβT2 cells
Format: cell-based, mouse
Conditions: 1 hour
Method: Cell Culture and Sample Preparation: LβT2 cells were obtained and maintained at 37° C. in 5% CO2 in humidified air in DMEM (Mediatech) containing 10% fetal bovine serum (Gemini). For experiments. 40-50×10^6 cells were seeded in 15 cm dishes. The medium was replaced 21 hours later with DMEM containing 25 mM HEPES (Mediatech) and glutamine. 18 hours later, the cells were treated with 100 nM GnRH or vehicle and were returned to the CO2 incubator for 1 hour. The incubation was stopped by aspirating the incubation medium and adding 10 ml of lysis buffer (4M guanidinium thiocyanate, 25 mM sodium citrate, pH 7.0, 0.5% N-lauroyl-sarcosine, and 0.1 M 2-mercaptoethanol). Total RNA was isolated according to the method of Chomczynski and Sacchi (1987) supra. Approximately 400 μg total RNA was obtained from each plate.
Real Time PCR. The protocol of Example 1 above, was used. Briefly, […] total RNA was converted into cDNA and […] (approximately 500 pg) was utilized for 40 cycle three-step PCR in an ABI Prism 7700 with 20 mM Tris pH 8.4, 50 mM KCL, 3 mM MgCl2, 200 μM dNTPs, 0.5×SYBR® green (Molecular Probes), […] primer and 0.5 U Platinum Taq (Life Technologies). Amplicon size and reaction specificity was confirmed by agarose gel electrophoresis. The number of target copies in each sample was interpolated from its detection threshold (CT) value using a plasmid or purified PCR product standard curve included on each plate. The sequence of the 60 primer sets utilized can be found in supplementary material. Each transcript in each sample was assayed 5 times and the median CT values were used for analysis.
Confirmation of Gene Regulation by Real-Time PCR. The measurement accuracy of the microarray and the biological variability of the transcriptional program identified was evaluated through a validation study comprising real time PCR assays of 60 transcripts, including 26 genes that met the threshold for regulation in the microarray assay. To generate accurate and precise reference measurements of these genes, 5 measurements were made of each gene in each RNA sample and the measurements were calibrated with a standard curve included on each PCR plate (FIG. 4). Nine experimental pairs of vehicle and GnRH-treated cultures were tested, including the microarray assayed samples. 100% (17 of 17) of the gene changes showing >1.6-fold change on the microarray and 66% (6 of 9) of gene changes showing between 1.3 and 1.6-fold changes were confirmed by PCR. […] Because the threshold was set at a 1.3-fold change, these genes are considered to be not confirmed (see discussion below).

[1] = 100 nM GnRH vs vehicle, LβT2 cells
[2] = gene did not meet the criteria on the microarray, 100 nM GnRH

Substance: gonadotropin releasing hormone [GnRH]
- 1κB fold-change, SYBR PCR (n = 9) [1]: 2.6 ± 0.2 fold
- Egr1 fold-change, SYBR PCR (n = 9) [1]: 390.6 ± 83.9 fold
- Egr2 fold-change, SYBR PCR (n = 9) [1]: 294.7 ± 35.6 fold
- Gem fold-change, SYBR PCR (n = 9) [1]: 4.3 ± 0.3 fold
- HSP30 fold-change, SYBR PCR (n = 9) [1]: 1.9 ± 0.2 fold
- Klf4 fold-change, SYBR PCR (n = 9) [1]: 2.9 ± 0.3 fold
- Klf-like EST fold-change, SYBR PCR (n = 9) [1]: 2.5 ± 0.2 fold
- LRG21 fold-change, SYBR PCR (n = 9) [1]: 96.8 ± 15.7 fold
- MKP1/3CH134 fold-change, SYBR PCR (n = 9) [1]: 3.4 ± 0.4 fold
- NMDMC fold-change, SYBR PCR (n = 9) [1]: 1.6 ± 0.3 fold
- Nr4a1/nur77 fold-change, SYBR PCR (n = 9) [1]: 49.4 ± 10.1 fold
- Nrf2 fold-change, SYBR PCR (n = 9) [1]: 1.5 ± 0.1 fold
- PRL1 fold-change, SYBR PCR (n = 9) [1]: 2.1 ± 0.1 fold
- Period1 fold-change, SYBR PCR (n = 9) [1]: 4.9 ± 1.1 fold
- Rgs2 fold-change, SYBR PCR (n = 9) [1]: 8.7 ± 0.4 fold
- TSC22 fold-change, SYBR PCR (n = 9) [1]: 3.3 ± 0.2 fold
- c-fos fold-change, SYBR PCR (n = 9) [1]: 52.0 ± 5.8 fold
- c-jun fold-change, SYBR PCR (n = 9) [1]: 6.6 ± 0.9 fold
- gly96 fold-change, SYBR PCR (n = 9) [1]: 3.8 ± 0.5 fold
- ler2/Pip92 fold-change, SYBR PCR (n = 9) [1]: 17.1 ± 2.4 fold
- transgelin fold-change, SYBR PCR (n = 9) [1]: 1.8 ± 0.2 fold
- β-actin fold-change, SYBR PCR (n = 9) [1]: 1.6 ± 0.1 fold
- γ-actin fold-change, SYBR PCR (n = 9) [1]: 3.9 ± 0.4 fold
- SCL regulation by real-time PCR [2]: 2.4 fold
- STY kinase regulation by real-time PCR [2]: 1.7 fold
- glucose transport protein regulation by real-time PCR [2]: 2.2 fold
